What was measured:
TGF-β1 = assay: Real-time RT-PCR of TGF-β1 mRNA in HSC T6 cells; assay type: cell-based, rat; conditions: 48 h
Method: FIG. 9. DBZIM and TDBZIM suppressed TGF-β1 mRNA. HSC T6 cells were incubated with (a) DBZIM (1, 10, 100 and 300 μM) and (b) TDBZIM (1, 10 and 100 μM) for 48 h for the dosage-dependent study, and (c) with DBZIM (100 μM) and TDBZIM (100 μM) for 8, 24 and 48 h for the time-dependent study. The expression level of TGF-β1 mRNA was quantified with real-time RT-PCR. The data were presented as mean and SEM, N=6, *^aP<0.05, *^bP<0.01, *^cP<0.005, when compared to vehicle control.
Total RNA was isolated using NucleoSpin RNAII isolation kit (Nacherey & Nagel, Germany), and quantified by ND-100 spectrophotometer (Nanodrop Technologies, DE, USA). The details of real-time RT-PCR were reported elsewhere (Zhang et al. 2006). Briefly, it was a two-step real-time RT-PCR using Taqman chemistry. Total RNA was first reverse transcribed to cDNA, and real-time PCR was run and detected in ABI 7500 Fast Real-Time PCR System (Applied Biosystems, CA, USA). Primers and probes for rat GFAP, SMAA, collagen Ia1, fibronectin, TGF-β1, TGF-β receptor I (TGFβ RI) and IL-6 were ordered from Taqman's assay-on-demand database. Rat β-actin was used as normalization gene, and its expression level was constant (CT difference was <±0.5) throughout the experimental settings in this study. Relative quantification of target mRNA was calculated using comparative threshold cycle method (ΔΔCT) as described in User Bulletin #2 (ABI Prism 7700 Sequence Detection System). Relative quantification was given by 2^−ΔΔCT to express the up-regulation or down regulation of the target gene under the treatments compared to the control.

[1] = tested on: liver fibrosis induced by bile duct ligation (BDL); assay: Liver fibrosis in mice induced by bile duct ligation (BDL); assay type: in vivo, mouse; conditions: for liver fibrosis (Sirius Red collagen): drinking water, 4 weeks, DBZIM 10 mg/L, DPIM 1 g/L
Method: FIG. 15 Effect of DBZIM and DPIM on liver fibrosis in mice. DBZIM was tested on mice induced by (a) liver toxin thioacetamide (TAA) or by (b) bile duct ligation (BDL). DPIM was also tested on mice induced by TAA (data not shown)) or by (c) bile duct ligation (BDL).
FIG. 16. Representative of images of Sirius red staining in liver sections from different DPIM compound treated group mice. Each treated group had 6-8 mice, except for 500 mg/l treated group, which had only one mouse in the group. Red staining areas represent collagen deposits. (A) sham operated, (B) sham operated+DPIM 1 g/l for 4 weeks, (C) BDL for 4 weeks, (D) BDL 4 weeks+500 mg/l DPIM treatment, (E) BDL 4 weeks+750 mg/l DPIM treatment, and (F) BDL 4 weeks+1 g/l DPIM treatment.
FIG. 17. Percentage of Sirius red staining areas. Sirius red staining areas from different treatment group mice were quantified with Image J software, at least 6 different areas from left and middle lobes of liver of each mouse were covered. *P<0.05, BDL vs. DPIM treated groups; # P<0.05, 750 mg/l vs. 1 g/l treated groups.
FIG. 18. Liver weights of different treatment groups. Each group consisted of 6-8 mice which were 10-12 weeks old at the start of surgery procedure. *P<0.05, sham operated control group vs: BDL 4 weeks, **P<0.05, DPIM compound treated groups vs; BDL weeks group, # P<0.05, 750 mg/l DPIM treated group vs. 1 g/l DPIM treated group.
FIG. 19. Representative images of H&E staining of liver sections. (A) control group; (B) BDL 4 weeks group; and (C) BDL 4 weeks+DPIM 1 g/l treatment group.
FIG. 20. Quantitative real-time PCR for collagen 1a1 mRNA. DPIM reduced collagen 1a1 mRNA.
For the liver toxin thioacetamide (TAA) model, TAA was given by i.p. injection at 200 mg/kg body weight, 3 times per week, for 12 weeks, to induce hepatic fibrosis in mice. For the bile duct ligation model (BDL), adult mice were anesthetized with Ketamine (150 mg/kg)/Xylazine (10 mg/kg) via i.p. injection. An abdominal incision at the midline is made to expose the common bile conduct, which was then ligated using 5-0 silk suture. In the control animal, the bile duct is exposed, but not ligated. DBZIM or DPIM was provided to the mice in drinking water at concentrations from 1 to 1000 mg/liter. The collagen content in the fibrotic liver was assessed by the Sirius Red staining of the liver tissue sections.
Male FVB/N mice (8-10 weeks old) housed in a specific pathogen-free (SFP) facility on a 12 hour dark-light cycle and with free access to water and diet were used in the study. The animal experiment protocol was approved by the institutional animal care and use committee (IACUC), the Biomedical Research Council (BMRC) of Singapore.
Cholestatic fibrosis was induced by BDL, briefly, mice were anesthetized with intraperitoneal injection of ketamine (150 mg/kg) and xylazine (10 mg/kg), after midline laparotomy, the common bile duct was ligated twice with 5-0 silk suture. The sham operation was performed similarly except that bile duct was not double ligated. The experimental mice were divided into four groups: 1) control only (sham operated, but no BDL); 2) control+DPIM; 3) BDL only; 4) BDL+DPIM. Each group consists of 6-8 mice. DPIM compound for treatment was supplied in the drinking water at three concentrations, 500 mg/l, 750 mg/l, 1 g/l, respectively. The drinking water containing DPIM was changed weekly. It was observed that on average each mouse (normal or operated) drank approximately 3-4 ml plain or DPIM-containing water every day. […] The compound treatment was started on the third day after animals recovered from the BDL procedure. After 4 weeks, livers were removed from mice for fixation 10% formalin, subsequently embedded in paraffin.
For consistency, paraffin-sections prepared from the left and median lobes were stained with Sirius-Red to visualize the collagen content. […]

Row | Compound | inhibition of TGF-β1 mRNA (TGF-β1; regardless of dosage (1-100 μM)) [%] | liver fibrosis (Sirius Red collagen) ([1]; BDL model) | suppression of TGF-β1 mRNA (TGF-β1; 100 μM) [%] | suppression of TGF-β1 mRNA (TGF-β1; 300 μM) [%] | liver weight ([1]; BDL 4 weeks + 750 mg/l (BDL alone 2.74±0.51 g)) [g] | Sirius-Red positive areas (percentage of staining areas; BDL alone 8.69) ([1]; BDL 4 weeks + 750 mg/l in drinking water) [%] | proliferative cells around the sinusoidal area (H&E staining) ([1]; BDL 4 weeks + 1 g/l) | liver weight ([1]; BDL 4 weeks + 1 g/l (BDL alone 2.74±0.51 g)) [g] | Sirius-Red positive areas (percentage of staining areas; BDL alone 8.69) ([1]; BDL 4 weeks + 1 g/l in drinking water) [%] | liver collagen 1a1 mRNA ([1]; BDL model) | collagen build-up in sham mice ([1]; sham operated + 1 g/l for 4 weeks) | liver weight ([1]; sham operated + DPIM for 4 weeks (sham 1.50±0.19 g)) [g]
1 | 1,3,5-tris(4-methyl-imidazolium)-linked cyclophane.3Br [TDBZIM] | ~23 |  |  |  |  |  |  |  |  |  |  | 
2 | [Br-].c1ccc(Cn2cc[n+](Cc3ccccc3)c2)cc1 [DBZIM, 1,3-bisbenzylimidazolium bromide] |  | attenuated fibrosis | 28 | 33 |  |  |  |  |  |  |  | 
3 | CC(C)n1cc[n+](C(C)C)c1.F[B-](F)(F)F [DPIM, 1,3-diisopropylimidazolium tetrafluoroborate] |  | displayed its effect |  |  | 1.97 ± 0.44 | 4.33 | reduced the number of proliferative cells | 1.65 ± 0.20 | 3.42 | reduced the collagen 1a1 mRNA | did not induce any significant build-up of collagen | 1.56 ± 0.08

From patent US9072729B2, “Method for treating fibrosis and cancer with imidazolium and imidazolinium compounds” (Agency for Science, Technology and Research, priority 2008, dated 2015)
